{"source": "paper PMC7139549", "about": "“TLD1433 Photosensitizer Inhibits Conjunctival Melanoma Cells in Zebrafish Ectopic and Orthotopic Tumour Models” (Cancers, 2020)", "system": "CRMM2 cells", "assay": "Annexin-V-FITC / Propidium Iodide FACS, CRMM2", "assay_type": "cell-based, Human", "excerpt": "Depending on the nature and intracellular localization of a PS, the light dose, and the cell type, PDT is known to provoke either necrosis, apoptosis, or autophagy. In order to investigate the death mechanism induced by green light-activated TLD1433 in CRMM1 and CRMM2 cells, the cells were stained with Annexin V and propidium iodide, and further analysed by fluorescence-activated cell sorting (FACS).\nFigure 3 Green light irradiation of TLD1433 induces apoptosis and necrosis in CRMM1 and CRMM2 cells. (A) CRMM1 and (C) CRMM2 were stained with Annexin-V-FITC and Propidium Iodide. The percentages of live, early apoptotic, later apoptotic and necrotic cells in CRMM1 (B) and CRMM2 (D) were counted by FACS. Results are presented as means ± SD from three independent experiments. […]", "data": [{"smiles": "Cc1ccnc(-c2cc(C)ccn2)c1.Cc1ccnc(-c2cc(C)ccn2)c1.[Cl-].[Cl-].[Ru+2].c1csc(-c2ccc(-c3ccc(-c4nc5c6cccnc6c6ncccc6c5[nH]4)s3)s2)c1", "note": "[TLD1433]", "values": [{"measurement": "cell fate by FACS (in words)", "setting": "CRMM2, dark TLD1433 group", "value": "most cells were found alive"}, {"measurement": "cell fate by FACS (in words)", "setting": "CRMM2, light-activated TLD1433 group", "value": "about half of the cells were found dead"}]}]}
